The term IC50 denotes the concentration that gives 50% inhibition.

The record followed here is patent US9938258B2 (Karyopharm Therapeutics Inc., priority 2012, dated 2018).

One assay concerns Z138 cells. The experiment in a line: MTT cell proliferation assay, Z138. The class given is cell-based. The note with it: Homo sapiens. The procedure, abridged:
(§1)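 Read-out: MTT reduction to formazan, solubilised and measured at 490 nm after ~4 h with MTT; inhibition (%) = (1-(ODo/OD))×100 relative to negative control. Seeding was 5,000-10,000 cells/well with overnight attachment. Eight test concentrations spanned 1 nM-30 μM; mostly duplicate, mean ± SE.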
For orientation: Formazan colour is commonly taken as a measure of viable cells.

For a further assay, the system named is MS751 cells. Kind of assay: MTT cell proliferation assay, MS751. The class given is cell-based, human. The following applies: Homo sapiens. The method in brief: as §1
A further assay deals with 3T3 cells. The experiment in a line: MTT cell proliferation assay, 3T3. The class given is cell-based, mouse. The following applies: Mus musculus. The method in brief: as §1
Where [1] appears, read: Z-138, Z138 cells, eight concentrations 1 nM to 30 μM, incubation approximately 64-72 hours, read-out: MTT Assay IC50, Z138.
The mark [2] stands for this setting: MS751, MS751 cells, eight concentrations 1 nM to 30 μM, incubation approximately 64-72 hours, read-out: MTT Assay IC50, MS751.
Setting [3] is: NIH3T3, 3T3 cells, eight concentrations 1 nM to 30 μM, incubation approximately 64-72 hours, read-out: MTT Assay IC50, 3T3.
[4] abbreviates: Z-138, Z138 cells, approximately 64-72 hours incubation, read-out: MTT Assay IC50, Z138.
Setting [5] is: MS751, MS751 cells, approximately 64-72 hours incubation, read-out: MTT Assay IC50, MS751.
[6] abbreviates: NIH3T3, 3T3 cells, approximately 64-72 hours incubation, read-out: MTT Assay IC50, 3T3.
Setting [7] is: Z-138, read-out: MTT Assay IC50, Z138.
Setting [8] is: MS751, read-out: MTT Assay IC50, MS751.
The mark [9] stands for this setting: NIH3T3, read-out: MTT Assay IC50, 3T3.

Where two headings read alike, the source gives them in different places.

Regarding `CC(=O)c1ccc(-c2cc(Cl)c3c(c2)CC(CN)O3)s1` (stereo not drawn) [Compound 26], the IC50 in the assay on Z138 cells (setting [1]), in the assay with MS751 cells (setting [2]) and with 3T3 cells (setting [3]) was 5 to 30 µM throughout.
For the molecule `CC(=O)c1ccc(-c2cc(Cl)c3c(c2)CC(CNC(=O)/C=C/c2cncc(S(=O)(=O)N(C)C)c2)O3)s1` (stereo not drawn) [Compound 210, (E)-N-((5-(5-acetylthiophen-2-yl)-7-chloro-2,3-dihydrobenzofuran-2-yl)methyl)-3-(5-(N,N-dimethylsulfamoyl)pyridin-3-yl)acrylamide], the results for the IC50 in the assay on Z138 cells (setting [4]), with MS751 cells (setting [5]) and in the assay on 3T3 cells (setting [6]) were greater than 30 µM, 5 to 30 µM and greater than 30 µM, respectively.
Regarding `CC1(CNC(=O)/C=C/c2ccc(N)nc2)Cc2cc(-c3ccc(C(=O)N4CCOCC4)cc3)cc(Cl)c2O1` (stereo not drawn) [Compound 349, (E)-3-(6-aminopyridin-3-yl)-N-((7-chloro-2-methyl-5-(4-(morpholine-4-carbonyl)phenyl)-2,3-dihydrobenzofuran-2-yl)methyl)acrylamide], the IC50 was 0.1 to 5 µM with Z138 cells (setting [4]), 0.1 to 5 µM in the assay on MS751 cells (setting [5]) and less than 0.1 µM with 3T3 cells (setting [6]).
For the molecule `CCn1cc(/C=C/C(=O)NCC2Cc3cc(-c4ccc(C(C)=O)s4)cc(Cl)c3O2)cn1` (stereo not drawn) [Compound 155, (E)-N-((5-(5-acetylthiophen-2-yl)-7-chloro-2,3-dihydrobenzofuran-2-yl)methyl)-3-(1-ethyl-1H-pyrazol-4-yl)acrylamide], the concentration for half-maximal inhibition (IC50) with Z138 cells (setting [1]), with MS751 cells (setting [2]) and with 3T3 cells (setting [3]) was greater than 30 µM in each case.
On to `CC(=O)c1ccc(-c2cc(Cl)c3c(c2)CC(CNC(=O)/C=C/c2cc(C)[nH]c2C)O3)s1` (stereo not drawn) [Compound 185, (E)-N-((5-(5-acetylthiophen-2-yl)-7-chloro-2,3-dihydrobenzofuran-2-yl)methyl)-3-(2,5-dimethyl-1H-pyrrol-3-yl)acrylamide], for which the half-maximal inhibitory concentration (IC50) with Z138 cells (setting [1]), in the assay with MS751 cells (setting [2]) and with 3T3 cells (setting [3]) was greater than 30 µM in each case.
On to `CCn1nccc1/C=C/C(=O)NCC1Cc2cc(-c3ccc(C(C)=O)s3)cc(Cl)c2O1` (stereo not drawn) [Compound 274, (E)-N-((5-(5-acetylthiophen-2-yl)-7-chloro-2,3-dihydrobenzofuran-2-yl)methyl)-3-(1-ethyl-1H-pyrazol-5-yl)acrylamide], for which the IC50 with Z138 cells (setting [1]) was 5 to 30 µM; in the assay with MS751 cells (setting [2]), 5 to 30 µM; in the assay on 3T3 cells (setting [3]), greater than 30 µM.
In the case of `CN1C(=O)c2ccc(-c3cc(Cl)c4c(c3)CC(CNC(=O)/C=C/c3ccc(N)nc3)O4)cc2C1=O` (stereo not drawn) [Compound 343, (E)-3-(6-aminopyridin-3-yl)-N-((7-chloro-5-(2-methyl-1,3-dioxoisoindolin-5-yl)-2,3-dihydrobenzofuran-2-yl)methyl)acrylamide], the 50% inhibitory concentration (IC50) in the assay with Z138 cells (setting [4]) was greater than 30 µM; in the assay with MS751 cells (setting [5]), 0.1 to 5 µM; in the assay with 3T3 cells (setting [6]), less than 0.1 µM.
Taken in the same sequence, the figures for `CN(C)C(=O)c1ccc(-c2cc(Cl)c3c(c2)CC(CNC(=O)/C=C/c2ccc(N)nc2)O3)o1` (stereo not drawn) [Compound 324, (E)-5-(2-((3-(6-Aminopyridin-3-yl)acrylamido)methyl)-7-chloro-2,3-dihydrobenzofuran-5-yl)-N,N-dimethylfuran-2-carboxamide] were less than 0.1 µM, less than 0.1 µM and 5 to 30 µM.
Take `CC(=O)c1ccc(-c2cc(Cl)c3c(c2)CC(CNC(=O)/C=C/c2cccnn2)O3)s1` (stereo not drawn) [Compound 279, (E)-N-((5-(5-acetylthiophen-2-yl)-7-chloro-2,3-dihydrobenzofuran-2-yl)methyl)-3-(pyridazin-3-yl)acrylamide]: the IC50 in the assay on Z138 cells (setting [1]), in the assay on MS751 cells (setting [2]) and in the assay with 3T3 cells (setting [3]) was 0.1 to 5 µM in each case.
Turning to `Cc1noc(C)c1-c1cc(Cl)c2c(c1)CC(CNC(=O)/C=C/c1cccnc1)O2` (stereo not drawn) [Compound 35, (E)-N-((7-chloro-5-(3,5-dimethylisoxazol-4-yl)-2,3-dihydrobenzofuran-2-yl)methyl)-3-(pyridin-3-yl)acrylamide], the IC50 with Z138 cells (setting [1]) was less than 0.1 µM; in the assay with MS751 cells (setting [2]), 0.1 to 5 µM; in the assay with 3T3 cells (setting [3]), 0.1 to 5 µM.
On to `CC(=O)Nc1ccc(/C=C/C(=O)NCC2Cc3cc(-c4ccc(C(C)=O)s4)cc(Cl)c3O2)cn1` (stereo not drawn) [Compound 315, (E)-3-(6-acetamidopyridin-3-yl)-N-((5-(5-acetylthiophen-2-yl)-7-chloro-2,3-dihydrobenzofuran-2-yl)methyl)acrylamide], for which the IC50 in the assay with Z138 cells (setting [7]), with MS751 cells (setting [8]) and in the assay on 3T3 cells (setting [9]) was greater than 30 µM in each case.
As for `CC(=O)c1ccc(-c2ccc3c(c2)CC(CNC(=O)/C=C/c2cccnc2)O3)s1` (stereo not drawn) [Compound 292, (E)-N-((5-(5-acetylthiophen-2-yl)-2,3-dihydrobenzofuran-2-yl)methyl)-3-(pyridin-3-yl)acrylamide], the IC50 with Z138 cells (setting [4]), with MS751 cells (setting [5]) and in the assay with 3T3 cells (setting [6]) was 0.1 to 5 µM in each case.
With `CC(=O)c1ccc(-c2cc(Cl)c3c(c2)CC(CNC(=O)/C=C/c2cccnc2C)O3)s1` (stereo not drawn) [Compound 182, (E)-N-((5-(5-acetylthiophen-2-yl)-7-chloro-2,3-dihydrobenzofuran-2-yl)methyl)-3-(2-methylpyridin-3-yl)acrylamide], the IC50 with Z138 cells (setting [1]) is greater than 30 µM; in the assay on MS751 cells (setting [2]) it was 5 to 30 µM; in the assay with 3T3 cells (setting [3]) it was greater than 30 µM.
On to `Nc1ccc(/C=C/C(=O)NCC2Oc3c(Cl)cc(-c4ccc(C(=O)N5CCOCC5)cc4)cc3C2=O)cn1` (stereo not drawn) [Compound 348, (E)-3-(6-aminopyridin-3-yl)-N-((7-chloro-5-(4-(morpholine-4-carbonyl)phenyl)-3-oxo-2,3-dihydrobenzofuran-2-yl)methyl)acrylamide], for which the values for the half-inhibitory concentration (IC50) in the assay on Z138 cells (setting [7]), in the assay on MS751 cells (setting [8]) and in the assay with 3T3 cells (setting [9]) were 5 to 30 µM, 0.1 to 5 µM and 0.1 to 5 µM, respectively.
In the case of `CC(=O)c1ccc(-c2ccc(Cl)c3c2CC(CNC(=O)/C=C/c2cccnc2)O3)s1` (stereo not drawn) [Compound 173, (E)-N-((4-(5-acetylthiophen-2-yl)-7-chloro-2,3-dihydrobenzofuran-2-yl)methyl)-3-(pyridin-3-yl)acrylamide], the IC50 with Z138 cells (setting [1]), in the assay on MS751 cells (setting [2]) and in the assay with 3T3 cells (setting [3]) was 0.1 to 5 µM throughout.
Turning to `O=C(/C=C/c1cccnc1)NCC1Cc2cc(-c3cc(Cl)cc(Cl)c3)cc(Cl)c2O1` (stereo not drawn) [Compound 32, (E)-N-((7-chloro-5-(3,5-dichlorophenyl)-2,3-dihydrobenzofuran-2-yl)methyl)-3-(pyridin-3-yl)acrylamide], the half-maximal inhibitory concentration (IC50) was 0.1 to 5 µM in the assay on Z138 cells (setting [1]), 0.1 to 5 µM with MS751 cells (setting [2]) and greater than 30 µM with 3T3 cells (setting [3]).
Consider `Nc1ccc(CNC(=O)/C=C/C2Cc3cc(-c4ccc(C(=O)N5CC(F)C5)cc4)cc(Cl)c3O2)cn1` (stereo not drawn) [Compound 361, (E)-N-((6-Aminopyridin-3-yl)methyl)-3-(7-chloro-5-(4-(3-fluoroazetidine-1-carbonyl)phenyl)-2,3-dihydrobenzofuran-2-yl)acrylamide], for which the IC50 in the assay with Z138 cells (setting [4]), in the assay on MS751 cells (setting [5]) and in the assay with 3T3 cells (setting [6]) was 0.1 to 5 µM in each case.
`Nc1ccc(CNC(=O)/C=C/C2Cc3cc(-c4ccccc4S(=O)(=O)N4CCOCC4)cc(Cl)c3O2)cn1` (stereo not drawn) [Compound 360, (E)-N-((6-aminopyridin-3-yl)methyl)-3-(7-chloro-5-(2-(morpholinosulfonyl)phenyl)-2,3-dihydrobenzofuran-2-yl)acrylamide]: the figures for the 50% inhibitory concentration (IC50) with Z138 cells (setting [4]), in the assay on MS751 cells (setting [5]) and in the assay with 3T3 cells (setting [6]) were 0.1 to 5 µM, less than 0.1 µM and less than 0.1 µM, respectively.
